Measurements reported in patent publication EP4817594A1, “SKIN CONDITION IMPROVEMENT COMPOSITION COMPRISING GLUTATHIONE-CONTAINING EXOSOME-LIKE VESICLES” (Cosmax, Inc., priority 2023, dated 2025).
Read-outs that look alike come from different tables or passages of the source.

Method: At this time, reduced glutathione was used as a standard.
Each of the diluted standard, the sample of Comparative Example 1 diluted in tertiary distilled water, the sample of Example diluted in tertiary distilled water, and the sample of Comparative Example 2 diluted in tertiary distilled water was filtered through a 0.2 µm-syringe filter, and the filtrate was put into a vial for HPLC. 10 ul was injected into a C18 column, and the samples were eluted at a flow rate of 1 ml/min, and the values were measured by using a DAD detector.

## N[C@@H](CCC(=O)N[C@@H](CS)C(=O)NCC(=O)O)C(=O)O [Comparative Example 1, Glutathione]
Immediately after loading, 25 °C, light blocked
  Relative concentration of reduced glutathione (GSH): 1.00
water, 4380 h
  Relative concentration of reduced glutathione (GSH): 0.21
  glutathione concentration compared to the initial concentration: about 20%
water, 8766 h
  Relative concentration of reduced glutathione (GSH): 0.06
  glutathione concentration compared to the initial concentration: about 6%
